The test system of one data set is 293HGLVP/CrePr cells. Nature of the data set: RU486-induced CrePr activation of IL-1βXAT in 293HGLVP/CrePr cells. It counts as cell-based.
A further data set deals with mice. The data set is classed as in vivo. To be noted: perinatal systemic administration.
The conditions of data set [1]: literature (Loddick and Rothwell 1996; Yamasaki et al. 1995); cited from earlier work.
The subject of data set [2] is primary rat endothelial cells. Kind of data set: IL-1β regulation of inflammation-related genes in primary rat endothelial cells (mRNA, zymography). It counts as cell-based. To be noted: murine IL-1β 10 ng/mL, over 72 hours. How it is done: The effects of IL-1β were evaluated in vitro utilizing primary rat endothelial cell cultures as a representative rodent cell type. In this experiment, murine IL-1β (10 ng/mL) was administered to cultured primary cells, and subsequently examined for the regulation of several inflammation-related genes at the transcript level over the course of 72 hours. These molecules include (A) the inducible isoform of cyclooxygenase (COX-2), intercellular adhesion molecule-1 (ICAM-1) and monocyte chemoattractant protein-1 (MCP-1), as well as (B) the collagenase-A (MMP-2) and -B (MMP-9). Panel (C) depicts enzyme activity levels of MMP-2 and MMP-9 as evaluated by zymography.
Moreover, a plethora of inflammation-related genes are in turn induced by IL-1β, leading to exacerbation of the inflammatory response. IL-1βregulates down-stream inflammatory genes, including the inducible isoform of cyclooxygenase (COX-2) and the intercellular adhesion molecule-1 (ICAM-1), the monocyte chemoattractant protein-1 (MCP-1), as well as collagenases A (MMP-2) and B (MMP-9). ICAM-1 and MCP-1 are molecules associated with the recruitment of circulating immune cells at the site of injury (i.e. neutrophils and monocytes, respectively), whereas MMP-2 and MMP-9 are collagenases associated with tissue destruction during arthritis and injury. Primary rat endothelial cells were employed as a representative rodent model to investigate the effects of IL-1β on the regulation of ICAM-1, MCP-1, MMP-2 and MMP-9 at the transcriptional level (mRNA) as well as the enzyme activity level (zymography). FIG. 5 summarizes the regulation of these genes over time.

Protocol for 293HGLVP/CrePr cells: The IL-1β^XAT gene was transiently transfected into 293HGLVP/CrePr cells and the expression of IL-1β and lacZ were evaluated following RU486 (10^-7 M) administration.
IL-1β expression was assessed at the mRNA level by reverse transcriptase PCR (RT-PCR), and lacZ expression was evaluated by X-gal histochemistry.

Consider `CC#C[C@]1(O)CC[C@H]2[C@@H]3CCC4=CC(=O)CCC4=C3[C@@H](c3ccc(N(C)C)cc3)C[C@@]21C` [RU486, mifepristone], for which the “secreted IL-1β protein in supernatant media (ELISA)” value in the data set with 293HGLVP/CrePr cells (RU486 10^-7 M) is “significantly higher levels”. Also, in the data set with 293HGLVP/CrePr cells (RU486 10^-7 M, IL-1βXAT-transfected cells), the “IL-1β and lacZ mRNA (RT-PCR)” value is “up-regulation”. Besides, in the data set with 293HGLVP/CrePr cells (RU486 in culture media), the “number of X-gal positive cells” value was “significant increase”.

Consider “FIV(lacZ): FIV vector carrying the reporter gene lacZ, construct 12750 bp”, for which, in the data set with mice, the “duration of stable lacZ reporter expression” value is recorded as “over 3 months”.

For the molecule “IL-1ra: IL-1 receptor antagonist, competes for receptor binding”, the “tissue damage / injury in stroke models” value in data set [1] is recorded as “significantly attenuates tissue injury”.

B1: IL-1β: pro-inflammatory cytokine; murine IL-1β (10 ng/mL) in FIG. 5 (protein, UniProt P10749 118-269, looked up)
Interleukin-1 beta: VPIRQLHYRLRDEQQKSLVLSDPYELKALHLNGQNINQQVIFSMSFVQGEPSNDKIPVALGLKGKNLYLSCVMKDGTPTLQLESVDPKQYPKKKMEKRFVFNKIEVKSKVEFESAEFPNWYISTSQAEHKPVFLGNNSGQDIIDFTMESVSS
As to B1, in data set [2], the “MMP-2 enzyme activity (zymography)” value is recorded as “increased with time”; the “MMP-2 mRNA levels” value is “not altered”; the “synthesis of COX-2, MCP-1, ICAM-1 and MMP-9” value is recorded as “upregulated”. Besides, in data set [1], the “tissue damage / injury in stroke models” value was “exacerbates damage”.

Source of the values: US8003779B2, “Compositions and methods for studying and treating inflammatory diseases and disorders” (University of Rochester, priority 2005, dated 2011).
